Source: patent publication US20260070945A1, “MACROCYCLIC IMMUNOMODULATORS” (Bristol-Myers Squibb Company, priority 2022, published 2026)
*1 amine or outer side, *2 acyl side, *3 side chain or, on linkers, in order; H or OH if unused. Where a SMILES comes first, the peptide text is derived from it. Bridges are numbered along the chain shown (N, C = ends). [ ]: non-standard residue; d: D form. The star is where a group is joined. ξ: configuration not given here. Phe(4-COOH) = N[C@@H](Cc1ccc(C(=O)O)cc1)C(=O)O; Bip = N[C@@H](Cc1ccc(-c2ccccc2)cc1)C(=O)O; NH(CH2)14COOH = O=C(O)CCCCCCCCCCCCCCN*; Phe(3-Me) = Cc1cccc(C[C@H](N)C(=O)O)c1; NMeAEEA = CN(CCOCCOCC(=O)[*:2])[*:1]; Val(3-OH) = CC(C)(O)[C@H](N)C(=O)O; 3Thi = N[C@@H](Cc1ccsc1)C(=O)O; Cha = N[C@@H](CC1CCCCC1)C(=O)O; Cit = NC(=O)NCCC[C@H](N)C(=O)O; Thr(3ξ) = CC(O)[C@H](N)C(=O)O; 12Ado = NCCCCCCCCCCCC(=O)O; Carboxymethyl = O=C(O)C*; NMeA = CN[C@@H](C)C(=O)O; Orn = NCCC[C@H](N)C(=O)O; Aun = NCCCCCCCCCCC(=O)O; Dab = NCC[C@H](N)C(=O)O; Dap = NC[C@H](N)C(=O)O; AEEA = NCCOCCOCC(=O)O; Ac3c = NC1(C(=O)O)CC1

target: T1, PD-1/PD-L1 interaction (PE-labeled human PD-L1-Ig binding to Jurkat cell line over-expressing human PD-1) (Homo sapiens, UniProt Q15116); assay: Jurkat-PD-1 Cell Binding High-Content Screening Assay (CBA); settings: Jurkat-hPD-1 cells, PE-labeled PD-L1-Ig 20 nM final; read-out: Jurkat HPD1 PDL1 IC50
T1 construct: expressed in transfected cells; host or cells: Jurkat
How it was run: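 Cells 8×10^3/well, DMEM + 10% FCS; cpd 2 h, 37 °C; PE–PD-L1-Ig 20 nM final, 1 h; PFA fix + Hoechst 33342, 3× dPBS wash; high-content imager.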

T1 sequence (Q15116 25-288): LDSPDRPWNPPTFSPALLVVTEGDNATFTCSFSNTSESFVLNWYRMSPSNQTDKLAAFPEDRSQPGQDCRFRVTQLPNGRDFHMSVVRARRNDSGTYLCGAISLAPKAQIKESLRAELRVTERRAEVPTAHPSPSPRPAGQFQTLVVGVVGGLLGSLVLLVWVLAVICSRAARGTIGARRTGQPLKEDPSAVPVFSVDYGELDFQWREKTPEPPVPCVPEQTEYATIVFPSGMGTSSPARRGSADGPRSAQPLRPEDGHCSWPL

Structure (SMILES) | IC50 [nM]
Cc1cccc(C[C@@H]2NC(=O)[C@H](CC(=O)O)NC(=O)[C@H](Cc3ccc(OCC(=O)O)cc3)NC(=O)[C@H](CN)NC(=O)CSC[C@@H](C(=O)N[C@@H](CCCN)C(=O)N[C@@H](CO)C(=O)NCCCCCCCCCCCC(=O)O)NC(=O)[C@H](C(C)O)NC(=O)[C@H](C(C)C)NC(=O)[C@H](CC3CCCCC3)NC(=O)[C@H](CCN)NC(=O)[C@@H](CC(C)C)NC(=O)[C@H](C)N(C)C(=O)[C@H](CCCNC(N)=O)NC(=O)[C@H](Cc3ccc(-c4ccccc4)cc3)NC(=O)[C@H](C(C)C)NC2=O)c1 (stereo partly drawn) [Example 2413] ({CH2CO}-[Dap]Y(Carboxymethyl)D[Phe(3-Me)]V[Bip][Cit][NMeA][dL][Dab][Cha]V[Thr(3ξ)]C[Orn]S[12Ado]-OH; thioether N-14) | 16.5
Cc1cccc(C[C@@H]2NC(=O)[C@H](CC(=O)O)NC(=O)[C@H](Cc3ccc(OCC(=O)O)cc3)NC(=O)[C@H](C(C)O)NC(=O)CSC[C@@H](C(=O)N[C@@H](CCN)C(=O)NCCOCCOCC(=O)NCCCCCCCCCCC(=O)O)NC(=O)[C@H](CCC(N)=O)NC(=O)[C@H](C(C)C)NC(=O)[C@H](CC3CCCCC3)NC(=O)[C@H](CCN)NC(=O)[C@@H](CC(C)C)NC(=O)[C@H](C)N(C)C(=O)[C@H](Cc3ccc(OCC(=O)O)cc3)NC(=O)[C@H](Cc3ccc(-c4ccccc4)cc3)NC(=O)[C@H](Cc3ccc(C(=O)O)cc3)NC2=O)c1 (stereo partly drawn) [Example 2475] ({CH2CO}-[Thr(3ξ)]Y(Carboxymethyl)D[Phe(3-Me)][Phe(4-COOH)][Bip]Y(Carboxymethyl)[NMeA][dL][Dab][Cha]VQC[Dab][AEEA][Aun]-OH; thioether N-14) | 18.9
Cc1cccc(C[C@@H]2NC(=O)[C@H](CC(=O)O)NC(=O)[C@H](Cc3ccc(OCC(=O)O)cc3)NC(=O)[C@H](Cc3ccc(OCC(=O)O)cc3)NC(=O)CSC[C@@H](C(=O)NC3(C(=O)NCCOCCOCC(=O)NCCCCCCCCCCC(=O)O)CC3)NC(=O)[C@H](CCCNC(=N)N)NC(=O)[C@H](C(C)C)NC(=O)[C@H](CC3CCCCC3)NC(=O)[C@H](CCN)NC(=O)[C@@H](CC(C)C)NC(=O)[C@H](C)N(C)C(=O)[C@H](C(C)C)NC(=O)[C@H](Cc3ccc(-c4ccccc4)cc3)NC(=O)[C@H](CC(C)C)NC2=O)c1 [Example 1250] ({CH2CO}-Y(Carboxymethyl)Y(Carboxymethyl)D[Phe(3-Me)]L[Bip]V[NMeA][dL][Dab][Cha]VRC[Ac3c][AEEA][Aun]-OH; thioether N-14) | 2.8
Cc1cccc(C[C@@H]2NC(=O)[C@H](CC(=O)O)NC(=O)[C@H](Cc3ccc(OCC(=O)O)cc3)NC(=O)[C@H](CN)NC(=O)CSC[C@@H](C(=O)N(C)CCOCCOCC(=O)NCCCCCCCCCCC(=O)O)NC(=O)[C@H](CCCN)NC(=O)[C@H](C(C)C)NC(=O)[C@H](CC3CCCCC3)NC(=O)[C@H](CCN)NC(=O)[C@@H](CC(C)C)NC(=O)[C@H](C)N(C)C(=O)[C@H](C(C)C)NC(=O)[C@H](Cc3ccc(-c4ccccc4)cc3)NC(=O)[C@H](C(C)C)NC2=O)c1 [Example 2414] ({CH2CO}-[Dap]Y(Carboxymethyl)D[Phe(3-Me)]V[Bip]V[NMeA][dL][Dab][Cha]V[Orn]C[NMeAEEA][Aun]-OH; thioether N-14) | 45
Cc1cccc(C[C@@H]2NC(=O)[C@H](CC(=O)O)NC(=O)[C@H](Cc3ccc(OCC(=O)O)cc3)NC(=O)[C@H](CN)NC(=O)CSC[C@@H](C(=O)N[C@@H](CCN)C(=O)NCCCCCCCCCCC(=O)O)NC(=O)[C@H](CO)NC(=O)[C@H](C(C)C)NC(=O)[C@H](CC3CCCCC3)NC(=O)[C@H](CCN)NC(=O)[C@@H](CC(C)C)NC(=O)[C@H](C)N(C)C(=O)[C@H](Cc3ccc(OCC(=O)O)cc3)NC(=O)[C@H](Cc3ccc(-c4ccccc4)cc3)NC(=O)[C@H](Cc3ccc(OCC(=O)O)cc3)NC2=O)c1 [Example 1263] ({CH2CO}-[Dap]Y(Carboxymethyl)D[Phe(3-Me)]Y(Carboxymethyl)[Bip]Y(Carboxymethyl)[NMeA][dL][Dab][Cha]VSC[Dab][Aun]-OH; thioether N-14) | 12.7
CC(C)C[C@@H]1NC(=O)[C@H](Cc2c[nH]c3ccccc23)NC(=O)[C@H](CC(=O)O)NC(=O)[C@H](Cc2ccc(C(=O)O)cc2)NC(=O)[C@H](Cc2ccc(OCC(=O)O)cc2)NC(=O)CSC[C@@H](C(=O)NCCOCCOCC(=O)NCCCCCCCCCCC(=O)O)NC(=O)[C@H](Cc2cnc[nH]2)NC(=O)[C@H](C(C)(C)O)NC(=O)[C@H](CC2CCCCC2)NC(=O)[C@H](CCN)NC(=O)[C@@H](CC(C)C)NC(=O)[C@H](C)N(C)C(=O)[C@H](C(C)C)NC(=O)[C@H](Cc2ccc(-c3ccccc3)cc2)NC1=O [Example 1121] ({CH2CO}-Y(Carboxymethyl)[Phe(4-COOH)]DWL[Bip]V[NMeA][dL][Dab][Cha][Val(3-OH)]HC[AEEA][Aun]-OH; thioether N-14) | 8.1

same assay, conditions: PE-labeled PD-L1-Ig 20 nM final, Jurkat-hPD-1 cells; read-out: Jurkat HPD1 PDL1 IC50

Structure (SMILES) | IC50 [nM]
Cc1cccc(C[C@@H]2NC(=O)[C@H](CC(=O)O)NC(=O)[C@H](Cc3ccc(OCC(=O)O)cc3)NC(=O)[C@H](Cc3ccsc3)NC(=O)CSC[C@@H](C(=O)N[C@@H](CCN)C(=O)NCCCCCCCCCCC(=O)O)NC(=O)[C@H](CO)NC(=O)[C@H](C(C)(C)O)NC(=O)[C@H](CC3CCCCC3)NC(=O)[C@H](Cc3cnc[nH]3)NC(=O)[C@@H](CC(C)C)NC(=O)[C@H](C)N(C)C(=O)[C@H](Cc3ccc(OCC(=O)O)cc3)NC(=O)[C@H](Cc3ccc(-c4ccccc4)cc3)NC(=O)[C@H](Cc3ccc(OCC(=O)O)cc3)NC2=O)c1 [Example 2457] ({CH2CO}-[3Thi]Y(Carboxymethyl)D[Phe(3-Me)]Y(Carboxymethyl)[Bip]Y(Carboxymethyl)[NMeA][dL]H[Cha][Val(3-OH)]SC[Dab][Aun]-OH; thioether N-14) | 41.2
CC(=O)NCCCC[C@@H]1NC(=O)[C@H](C(C)(C)O)NC(=O)[C@H](CC2CCCCC2)NC(=O)[C@H](CCN)NC(=O)[C@@H](CC(C)C)NC(=O)[C@H](C)N(C)C(=O)[C@H](CCC(N)=O)NC(=O)[C@H](Cc2ccc(-c3ccccc3)cc2)NC(=O)[C@H](Cc2ccc(C(=O)O)cc2)NC(=O)[C@H](Cc2cccc(C)c2)NC(=O)[C@H](CC(=O)O)NC(=O)[C@H](Cc2ccc(OCC(=O)O)cc2)NC(=O)[C@H](Cc2ccc(OCC(=O)O)cc2)NC(=O)CSC[C@@H](C(=O)N[C@@H](CCN)C(=O)NCCOCCOCC(=O)N[C@@H](CCC(=O)NCCCCCCCCCCCCCCC(=O)O)C(=O)O)NC1=O [Example 2577] ({CH2CO}-Y(Carboxymethyl)Y(Carboxymethyl)D[Phe(3-Me)][Phe(4-COOH)][Bip]Q[NMeA][dL][Dab][Cha][Val(3-OH)]K(Ac)C[Dab][AEEA]E(NH(CH2)14COOH)-OH; thioether N-14) | 46.9
Cc1cccc(C[C@@H]2NC(=O)[C@H](CC(=O)O)NC(=O)[C@H](Cc3ccc(C(=O)O)cc3)NC(=O)[C@H](C(C)O)NC(=O)CSC[C@@H](C(=O)N[C@@H](CCN)C(=O)NCCOCCOCC(=O)NCCCCCCCCCCC(=O)O)NC(=O)[C@H](CC(=O)O)NC(=O)[C@H](C(C)C)NC(=O)[C@H](CC3CCCCC3)NC(=O)[C@H](CCN)NC(=O)[C@@H](CC(C)C)NC(=O)[C@H](C)N(C)C(=O)[C@H](Cc3ccc(C(=O)O)cc3)NC(=O)[C@H](Cc3ccc(-c4ccccc4)cc3)NC(=O)[C@H](Cc3ccc(C(=O)O)cc3)NC2=O)c1 (stereo partly drawn) [Example 2557] ({CH2CO}-[Thr(3ξ)][Phe(4-COOH)]D[Phe(3-Me)][Phe(4-COOH)][Bip][Phe(4-COOH)][NMeA][dL][Dab][Cha]VDC[Dab][AEEA][Aun]-OH; thioether N-14) | 0.7
